Reference: patent US9469652B2, “ERK inhibitors” (Eli Lilly and Company, priority 2014, dated 2016)

How the values were obtained:
[1] = system: human colorectal cancer cells HCT116; assay: In vivo combination study, HCT116 KRAS mutant colorectal cancer xenograft model; conditions: oral, 28 days, single agent
Protocol: (§1) More specifically, the compound of Example 1 is tested in combination with either the pan-RAF inhibitor compound or the CDK4/6 inhibitor compound in HCT116, a KRAS mutant colorectal cancer xenograft model. Also, the compound of Example 1 is tested in combination with either the CDK4/6 inhibitor compound or DC101 in NCI-H441, A549, and NCI-H2122, KRAS mutant non-small cell lung cancer (NSCLC) xenograft models.
The HCT116 combination efficacy study is done in athymic nude rats. Expand human colorectal cancer cells HCT116 (ATCC, #CCL-247) in culture, harvest and inject 5×10e^6 cells in 200 μL of 1:1 HBSS+matrigel solution subcutaneously on to the rear right flank of female NIH nude rats (120-145 gm, Taconic Farms). Measure tumor growth and body weight twice per week beginning the seventh day after the implantation. When average tumor sizes reach 200-300 mm^3, randomize animals and group into groups of five to seven animals. Prepare test compound in an appropriate vehicle (see below) and administer by oral gavage for 21 to 28 days. Tumor response is determined by tumor volume measurement performed twice a week during the course of treatment. Vehicle used in this study is 1% HEC (hydroxy ethyl cellulose)/0.25% Tween® 80/0.05% Antifoam. The compound of Example 1 and the pan-RAF inhibitor compound are formulated in 1% HEC/0.25% Tween® 80/0.05% Antifoam. The CDK4/6 inhibitor compound is formulated in 1% HEC in 25 mM Sodium phosphate buffer, pH 2.

[2] = system: human non-small cell lung cancer cells NCI-H441 (KRAS_G12V); assay: In vivo combination study, NCI-H441 NSCLC xenograft model; conditions: single agent
Protocol: as §1
(§2) Combination efficacy is also tested in three KRAS mutant NSCLC xenograft models including A549 (KRAS_G12S) in SCID mice as well as NCI-H441 (KRAS_G12V) and NCI-H2122 (KRAS_G12C) in athymic nude mice. Expand human non-small cell lung cancer cells NCI-H441 (ATCC, #CRL-5807) and NCI-H2122 (ATCC, #CRL-5985) in culture, harvest and inject 5×10e^6 cells in 200 μL of 1:1 HBSS+matrigel solution subcutaneously on to the rear right flank of female athymic nude mice (20-22 gm, Harlan Laboratories). Expand human non-small cell lung cancer cells A549 (ATCC, #CC1-185) in culture, harvest and inject 5×10e^6 cells in 200 μL of 1:1 HBSS+matrigel solution subcutaneously on to the rear right flank of female CB-17 SCID mice (18-20 gm, Taconic Farms). For all cell lines, measure tumor growth and body weight twice per week beginning the seventh day after the implantation. When average tumor sizes reach 200-300 mm^3, randomize animals and group into groups of five to seven animals. Prepare test compound in an appropriate vehicle (see below) and administer by oral gavage (compound of Example 1 and the CDK4/6 inhibitor compound) or intraperitoneally (DC101) for 21 to 28 days. Tumor response is determined by tumor volume measurement performed twice a week during the course of treatment. Vehicle used in these studies is 1% HEC/0.25% Tween® 80/0.05% Antifoam. The compound of Example 1 is formulated in 1% HEC/0.25% Tween® 80/0.05% Antifoam and the CDK4/6 inhibitor compound is formulated in 1% HEC in 25 mM sodium phosphate buffer, pH 2. […] In the same NCI-H441 xenograft model, DC101 in phosphate buffer is also administered intraperitoneally twice per week (BIW) as a single agent or in combination with the compound of Example 1, 50 mpk, QD for 28 days.

[3] = system: human non-small cell lung cancer cells A549 (KRAS_G12S); assay: In vivo combination study, A549 NSCLC xenograft model; parameters: species or system female CB-17 SCID mice; conditions: single agent
Protocol: as §1, §2

[4] = system: human non-small cell lung cancer cells NCI-H2122 (KRAS_G12C); assay: In vivo combination study, NCI-H2122 NSCLC xenograft model; parameters: species or system female athymic nude mice; conditions: single agent
Protocol: as §1, §2

SMILES | Delta T/C % ([1]; 10 mg/kg BID) | TGI % ([1]; 10 mg/kg BID) | Delta T/C % ([1]; 20 mg/kg BID) | TGI % ([1]; 20 mg/kg BID) | Delta T/C % ([1]; 20 mg/kg QD) | TGI % ([1]; 20 mg/kg QD) | Delta T/C % ([2]; 50 mg/kg QD, oral, 28 days) | tumor growth inhibition ([2]; 50 mpk) | Delta T/C % ([3]; 50 mg/kg QD, oral, 28 days) | tumor growth inhibition ([3]; 50 mpk) | Delta T/C % ([4]; 50 mg/kg QD, oral, 28 days) | tumor growth inhibition ([4]; 50 mpk)
CNc1ncc2cc(-c3cc(NC(=O)NCCC(C)(C)C)c(F)cc3C)c(C)nc2n1 [pan-RAF inhibitor, 1-(3,3-dimethylbutyl)-3-(2-fluoro-4-methyl-5-(7-methyl-2-(methylamino)pyrido[2,3-d]pyrimidin-6-yl)phenyl)urea] | 71% | 29% | 32% | 68% | – | – | – | – | – | – | – | –
CCN1CCN(Cc2ccc(Nc3ncc(F)c(-c4cc(F)c5nc(C)n(C(C)C)c5c4)n3)nc2)CC1 [CDK4/6 inhibitor, [5-(4-ethyl-piperazin-1-ylmethyl)-pyridin-2-yl]-[5-fluoro-4-(7-fluoro-3-isopropyl-2-methyl-3H-benzoimidazol-5-yl)-pyrimidin-2-yl]-amine, reference compound] | – | – | – | – | 24% | 76% | 19% | 81% | 49% | 51% | 47% | 53%
